Measured values: ChEMBL document CHEMBL1212786 (Antimicrob Agents Chemother, 2010)

Assays:
[1] = Cmax in Sprague-Dawley rat whole blood at 10 mg/kg, po by LC/MS/MS analysis; type: ADME, organism-based; design: dose 10 mg/kg, route oral
[2] = system: Liver microsomes; test: Intrinsic clearance in human liver microsomes at 1 uM after 5 to 30 mins by MS analysis in presence of NADPH; type: ADME, Microsome
[3] = Apparent elimination half life in monkey at 1.4 mg/kg, iv by LC/MS/MS analysis; type: ADME, organism-based, Macaca mulatta; design: dose 1.4 mg/kg, route intravenous; conditions: rhesus monkey, in vivo
[4] = system: Hepatocyte; test: Cellular uptake in human hepatocytes assessed per mg of cellular protein association with nonparenchymal fraction at 2.27 uM after 1 hr by LC/MS/MS analysis; type: ADME, cell-based
[5] = Apparent elimination half life Sprague-Dawley rat at 5 mg/kg, po after 24 hrs by LC/MS/MS analysis; type: ADME, organism-based; design: dose 5 mg/kg, route oral; conditions: in vivo
[6] = AUC (2 to 24 hrs) in Sprague-Dawley rat liver at 30 mg/kg, po by LC/MS/MS analysis; type: ADME, organism-based; design: time upper 24 hr, time lower 2 hr, dose 30 mg/kg, route oral
[7] = target: Cytochrome P450 3A4 (Homo sapiens, UniProt P08684); test: Inhibition of human recombinant CYP3A4 after 30 mins; type: ADME
Chain of Cytochrome P450 3A4 (P08684 whole entry): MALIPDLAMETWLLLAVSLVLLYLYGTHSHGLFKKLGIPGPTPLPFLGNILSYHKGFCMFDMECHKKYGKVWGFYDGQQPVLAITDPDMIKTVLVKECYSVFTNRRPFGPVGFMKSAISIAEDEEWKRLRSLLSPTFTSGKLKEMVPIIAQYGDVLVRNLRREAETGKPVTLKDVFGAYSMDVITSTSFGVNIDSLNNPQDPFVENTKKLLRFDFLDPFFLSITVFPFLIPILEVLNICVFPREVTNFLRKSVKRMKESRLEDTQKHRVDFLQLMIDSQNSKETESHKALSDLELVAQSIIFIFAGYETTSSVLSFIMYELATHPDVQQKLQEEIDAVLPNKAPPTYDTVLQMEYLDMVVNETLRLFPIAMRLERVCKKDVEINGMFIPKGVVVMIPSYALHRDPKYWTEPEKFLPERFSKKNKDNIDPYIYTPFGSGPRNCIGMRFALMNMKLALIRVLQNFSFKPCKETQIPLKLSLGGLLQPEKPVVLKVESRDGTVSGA

[8] = system: Hepatitis C virus; test: microbe, parasite or virus in culture; conditions: Huh-7, 120 h
Description: Antiviral activity against Hepatitis C virus infected in human Huh7ET cells assessed as inhibition of viral replication after 120 hrs by luciferase reporter gene assay

[9] = Cmax in monkey at 1 mg/kg, iv after 24 hrs by LC/MS/MS analysis; type: ADME, organism-based, Macaca mulatta; design: dose 1 mg/kg, route intravenous; conditions: rhesus monkey, in vivo
[10] = system: Hepatitis C virus; test: microbe, parasite or virus in culture; conditions: Huh-7
Description: Antiviral activity against Hepatitis C virus infected in human Huh7ET cells assessed as suppression of full length viral RNA replication after 24 to 72 hrs by luciferase reporter gene assay

[11] = Oral bioavailability in Sprague-Dawley rat at 10 mg/kg after 24 hrs by LC/MS/MS analysis; type: ADME, organism-based; conditions: in vivo
[12] = target: T1, Cytochrome P450 1A2 (Homo sapiens, UniProt P05177); test: Inhibition of human recombinant CYP1A2 after 30 mins; type: ADME
T1 sequence (P05177 whole entry): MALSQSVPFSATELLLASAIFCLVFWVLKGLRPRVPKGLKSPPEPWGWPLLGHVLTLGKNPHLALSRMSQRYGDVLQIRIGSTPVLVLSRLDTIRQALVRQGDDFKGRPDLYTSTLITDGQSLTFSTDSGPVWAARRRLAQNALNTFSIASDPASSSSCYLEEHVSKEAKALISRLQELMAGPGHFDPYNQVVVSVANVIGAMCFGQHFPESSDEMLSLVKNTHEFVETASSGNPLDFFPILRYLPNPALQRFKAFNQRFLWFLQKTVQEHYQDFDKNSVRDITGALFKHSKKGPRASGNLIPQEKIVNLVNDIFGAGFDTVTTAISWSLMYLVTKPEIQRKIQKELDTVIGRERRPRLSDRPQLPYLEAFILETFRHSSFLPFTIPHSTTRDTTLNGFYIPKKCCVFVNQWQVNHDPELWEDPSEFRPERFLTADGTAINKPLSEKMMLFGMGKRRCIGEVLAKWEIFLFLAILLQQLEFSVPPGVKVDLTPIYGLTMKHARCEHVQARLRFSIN

[13] = AUC (0 to infinity) in Sprague-Dawley rat at 10 mg/kg, po after 24 hrs by LC/MS/MS analysis; type: ADME, organism-based; design: time infinity, dose 10 mg/kg, route oral; conditions: plasma
[14] = system: Hepatitis C virus; test: microbe, parasite or virus in culture; conditions: Huh-7, 120 h; remark: listed apart in the source
Description: Antiviral activity against Hepatitis C virus infected in human Huh7ET cells assessed as inhibition of viral replication after 120 hrs by RT-PCR analysis

[15] = system: Hepatitis C virus; test: Antiviral activity against Hepatitis C virus infected in human Huh7ET cells assessed as inhibition of viral replication after 72 hrs by luciferase reporter gene assay; type: functional, organism-based
[16] = system: Hepatitis C virus; test: microbe, parasite or virus in culture; conditions: Huh-7, 72 h
[17] = Tmax in monkey at 15 mg/kg, po by LC/MS/MS analysis; type: ADME, organism-based, Macaca mulatta; design: dose 15 mg/kg, route oral; conditions: rhesus monkey, in vivo
[18] = target: Cytochrome P450 2D6 (Homo sapiens, UniProt P10635); test: Inhibition of human recombinant CYP2D6 after 30 mins; type: ADME
Chain of Cytochrome P450 2D6 (P10635 whole entry): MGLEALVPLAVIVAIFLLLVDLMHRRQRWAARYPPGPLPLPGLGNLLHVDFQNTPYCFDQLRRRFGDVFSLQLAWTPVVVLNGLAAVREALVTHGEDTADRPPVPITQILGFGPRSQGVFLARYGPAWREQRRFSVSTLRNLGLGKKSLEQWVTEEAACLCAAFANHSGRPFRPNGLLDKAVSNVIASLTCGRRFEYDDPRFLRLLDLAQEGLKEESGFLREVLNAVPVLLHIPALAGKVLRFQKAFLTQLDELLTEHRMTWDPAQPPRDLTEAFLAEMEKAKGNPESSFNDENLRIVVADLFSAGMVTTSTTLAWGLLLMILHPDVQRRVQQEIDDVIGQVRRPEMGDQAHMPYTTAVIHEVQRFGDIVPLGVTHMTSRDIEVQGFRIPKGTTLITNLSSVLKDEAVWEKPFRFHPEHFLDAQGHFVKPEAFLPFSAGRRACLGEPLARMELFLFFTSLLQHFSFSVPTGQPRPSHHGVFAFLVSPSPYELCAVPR

[19] = AUC (2 to 24 hrs) in Sprague-Dawley rat whole blood at 10 mg/kg, po by LC/MS/MS analysis; type: ADME, organism-based; design: time upper 24 hr, time lower 2 hr, dose 10 mg/kg, route oral
[20] = Systemic clearance in monkey at 1.4 mg/kg, iv after 24 hrs by LC/MS/MS analysis; type: ADME, organism-based, Macaca mulatta; design: dose 1.4 mg/kg, route intravenous; conditions: rhesus monkey, in vivo
[21] = Cmax in monkey at 1.4 mg/kg, iv after 24 hrs by LC/MS/MS analysis; type: ADME, organism-based, Macaca mulatta; design: dose 1.4 mg/kg, route intravenous; conditions: rhesus monkey, in vivo
[22] = system: Hepatitis C virus; test: microbe, parasite or virus in culture; conditions: Huh-7, 72 h; remark: listed apart in the source
[23] = Apparent volume of distribution in Sprague-Dawley rat at 2 mg/kg, iv after 24 hrs by LC/MS/MS analysis; type: ADME, organism-based; design: dose 2 mg/kg, route intravenous; conditions: in vivo, read-out: Vz
[24] = system: Hepatitis C virus; test: microbe, parasite or virus in culture; conditions: Huh-7, 24 h
Description: Antiviral activity against Hepatitis C virus infected in human Huh7ET cells assessed as inhibition of viral replication after 24 hrs by luciferase reporter gene assay

[25] = AUC (0 to infinity) in Sprague-Dawley rat at 5 mg/kg, iv after 24 hrs by LC/MS/MS analysis; type: ADME, organism-based; design: time infinity, dose 5 mg/kg, route intravenous; conditions: plasma
[26] = Half life in human liver microsomes at 1 uM after 5 to 30 mins by MS analysis in presence of NADPH; type: ADME, Microsome
[27] = Cmax in monkey at 5 mg/kg, po after 24 hrs by LC/MS/MS analysis; type: ADME, organism-based, Macaca mulatta; design: dose 5 mg/kg, route oral; conditions: rhesus monkey, in vivo
[28] = Cmax in Sprague-Dawley rat at 10 mg/kg, po after 24 hrs by LC/MS/MS analysis; type: ADME, organism-based; design: dose 10 mg/kg, route oral; conditions: in vivo
[29] = Apparent elimination half life Sprague-Dawley rat at 10 mg/kg, po after 24 hrs by LC/MS/MS analysis; type: ADME, organism-based; design: dose 10 mg/kg, route oral; conditions: in vivo
[30] = Cmax in Sprague-Dawley rat whole blood at 10 mg/kg, iv by LC/MS/MS analysis; type: ADME, organism-based; design: dose 10 mg/kg, route intravenous
[31] = system: Hepatitis C virus; test: microbe, parasite or virus in culture; conditions: Huh-7, 48 h
Description: Antiviral activity against Hepatitis C virus infected in human Huh7ET cells assessed as inhibition of viral replication after 48 hrs by luciferase reporter gene assay

[32] = system: Hepatitis C virus; test: microbe, parasite or virus in culture; conditions: Huh-7, 72 h; remark: listed apart in the source
Description: Antiviral activity against Hepatitis C virus infected in human Huh7ET cells assessed as inhibition of viral replication after 72 hrs by RT-PCR analysis

[33] = Oral bioavailability in monkey at 5 mg/kg after 24 hrs by LC/MS/MS analysis; type: ADME, organism-based, Macaca mulatta; conditions: rhesus monkey, in vivo
[34] = AUC (0 to infinity) in Sprague-Dawley rat at 2 mg/kg, iv after 24 hrs by LC/MS/MS analysis; type: ADME, organism-based; design: time infinity, dose 2 mg/kg, route intravenous; conditions: plasma
[35] = Cmax in monkey at 15 mg/kg, po after 24 hrs by LC/MS/MS analysis; type: ADME, organism-based, Macaca mulatta; design: dose 15 mg/kg, route oral; conditions: rhesus monkey, in vivo
[36] = Cmax in Sprague-Dawley rat at 20 mg/kg, po after 24 hrs by LC/MS/MS analysis; type: ADME, organism-based; design: dose 20 mg/kg, route oral; conditions: in vivo
[37] = Apparent elimination half life in monkey at 7.5 mg/kg, po after 24 hrs by LC/MS/MS analysis; type: ADME, organism-based, Macaca mulatta; design: dose 7.5 mg/kg, route oral; conditions: rhesus monkey, in vivo
[38] = Intrinsic clearance in CD1 mouse liver microsomes at 1 uM after 5 to 30 mins by MS analysis in presence of NADPH; type: ADME, Microsome
[39] = system: PBMC; test: Antiinflammatory activity in human PBMC assessed as inhibition of anti-CD3/CD28 antibody-induced IL-2 production treated for 1 hr before anti-CD3/CD28 antibody challenge measured after 6 hrs by immunosuppression assay; type: functional, cell-based; conditions: read-out: EC50
[40] = Cmax in Sprague-Dawley rat at 2 mg/kg, iv after 24 hrs by LC/MS/MS analysis; type: ADME, organism-based; design: dose 2 mg/kg, route intravenous; conditions: in vivo
[41] = Cytotoxicity against human Huh7 cells assessed as lactate dehydrogenase release after 72 hrs; type: cell-based, Huh-7

Cmax [1]: 1870 ng/mL
clearance [2]: 14 µL/min/mg
half-life [3]: 42.2 h
Drug uptake [4]: 3.16 ng/mg
half-life [5]: 19.2 h
AUC(0-t) [6]: 141000 ng·h/mL
IC50 [7]: 58500 nM
EC50 [8]: 150 nM
Cmax [9]: 2560 ng/mL
EC50 [10]: 130 nM
bioavailability [11]: 23.6%
IC50 [12]: > 100000 nM
AUC(0-inf) [13]: 26500 ng·h/mL
EC50 [14]: 150 nM
EC90 ([15]; Huh-7, 72 h): 350 nM
EC50 [16]: 90 nM
Tmax [17]: 2 h
IC50 [18]: > 100000 nM
AUC(0-t) [19]: 18000 ng·h/mL
clearance [20]: 0.47 mL/min/kg
Cmax [21]: 2310 ng/mL
EC50 [22]: 110 nM
Vd [23]: 3.37 L/kg
EC50 [24]: 200 nM
AUC(0-inf) [25]: 37300 ng·h/mL
half-life at 1 µM [26]: 1.05 h
Cmax [27]: 1810 ng/mL
Cmax [28]: 1400 ng/mL
half-life [29]: 21.4 h
Cmax [30]: 3360 ng/mL
EC50 [31]: 70 nM
EC50 [32]: 160 nM
bioavailability [33]: 17.7%
AUC(0-inf) [34]: 22500 ng·h/mL
Cmax [35]: 2430 ng/mL
Cmax [36]: 1760 ng/mL
half-life [37]: 33.1 h
clearance [38]: 9 µL/min/mg
Cmax [40]: 1510 ng/mL
SMILES: C/C=C/C[C@@H](C)[C@@H](O)[C@H]1C(=O)N[C@@H](CC)C(=O)N(C)C(SCCN(C)C)C(=O)N(C)[C@@H](CC(C)(C)O)C(=O)N[C@@H](C(C)C)C(=O)N(C)[C@@H](CC(C)C)C(=O)N[C@@H](C)C(=O)N[C@H](C)C(=O)N(C)[C@@H](CC(C)C)C(=O)N(C)[C@@H](CC(C)C)C(=O)N(C)[C@@H](C(C)C)C(=O)N1C (single isomer, unassigned) [SCY 635]
Activity ([15]; Hepacivirus hominis, Huh-7): Dose-dependent effect
EC50 [39]: 5300 nM
CC50 at 72 h [41]: 13700 nM
